{"source": "patent US20250304630A1", "about": "“POLYPEPTIDES HAVING OSMOPROTECTIVE ACTIVITY, COMPOSITIONS THEREOF AND USES THEREOF” (DELAVIE SCIENCES, LLC, priority 2022, published 2025)", "key": {"[1]": {"test": "HORAC assay (OxiSelect HORAC Assay), loss of FITC fluorescence", "assay_type": "biochemical", "procedure": "(§1) This assay procedure was used to screen materials for antioxidant properties using non-cell-based methods. Dilutions of HSP tested were 10%, 5%, 1%, 0.5%, 0.1%, 0.05%, and 0.01%.\n(§2) Fluorescein (FITC) is normally a highly fluorescent molecule, yet when fluorescein is oxidized by either peroxyl radicals or hydroxyl radicals, it loses its fluorescence. Thus, when FITC is incubated in the presence of 2,2′-azobis(2-amidino-propane) dihydrochloride (AAPH, a peroxyl radical generating compound), or a combination of hydrogen peroxide and cobalt (a hydroxyl radical generating system based on the Fenton-type reaction), there will be a time dependent loss of FITC fluorescence. However, if a material with antioxidant properties is present during the incubation, the loss of fluorescence will be delayed as some of the peroxyl or hydroxyl radicals react with the antioxidant material instead of the FITC. Under these conditions, the delay or prevention in fluorescence decay will be in proportion to the antioxidant capacity of the test material.\nThe HORAC assay was performed as specified by the manufacturer of the kit. For the assay, the test materials were prepared in Assay Buffer at 10× their final desired concentrations. Caffeic acid was used as the positive control for this assay. To start the assay, 20 μl of the test material or positive control were added to the wells of a 96-well plate. All of the samples were prepared in triplicate. Next, 140 μl of an FITC solution was added to each well and the plate was incubated for 30 minutes in the dark. After this incubation, 20 μl of a hydrogen peroxide solution (Hydroxyl Radical Initiator) was added to each well, followed by the addition of 20 μl of a cobalt solution (Fenton Reagent). The plate was mixed and then read using a Fluoroskan Ascent Fluorometer at 3-minute intervals for 60 minutes with an excitation wavelength of 480 nm and an emission wavelength of 518 nm.\n(§3) The loss of FITC fluorescence can be graphed by plotting fluorescence intensity vs time for each of the samples to generate a fluorescence decay curve. The area under this curve (AUC) then represents the extent of FITC fluorescence loss over the course of the assay, and this measurement is then used as an index for the effectiveness of the antioxidant samples. The AUC for a sample can be calculated using the following equation: […]\n(§4) Where RFUO is the initial fluorescence measurement of the sample at time 0, with each subsequent RFU measurement indicated by the respective increased numbers. The AUC measurements were then used to determine the percent inhibition for each concentration of the test material screened, followed by the determination of the IC50, the concentration of the material at which 50% of the FITC signal loss due to radical interaction is prevented."}, "[2]": {"test": "Osmotic stress assay: keratinocytes pretreated, exposed to hypertonic NaCl media, viability by MTT", "assay_type": "cell-based, human", "conditions": "human, human adult epidermal keratinocytes, then 24 h with 0 mM added NaCl, MTT, % of untreated 0 mM NaCl control, mean +/- SD, read-out: Cell Viability", "procedure": "(§5) This assay procedure was used to screen the recombinantly produced HSP for its ability to protect against osmotic stress, using cultured human keratinocytes as the testing model. The assay used changes in cell viability as the endpoint for measuring the protective effect.\n(§6) For this study, human keratinocytes were pretreated for 24 hours with either HSP, a mild hypertonic solution of sorbitol (positive control), or left untreated (negative control). After the pretreatment, the cell culture media was replaced with media supplemented with NaCl at progressively increasing hypertonic concentrations. The cells were then incubated again for 24 hours. After the second incubation, cell viability was determined using an MTT assay.\n(§7) The MTT assay is a colorimetric analysis of the metabolic activity of the cell, which is a reflection of cell viability. Viable cells can take up MTT, which is then reduced by mitochondria, resulting in the formation of insoluble purple formazin crystals. These crystals are then extracted from the cells with isopropanol and quantified spectrophotometrically. The intensity of the purple color is directly proportional to the number of viable cells.\n(§8) Human adult epidermal keratinocytes were grown using EpiLife Media (60 µM calcium) supplemented with 0.2% v/v bovine pituitary extract, 1 μg/ml recombinant human insulin-like growth factor-1, 0.18 μg/ml hydrocortisone, 5 μg/ml bovine transferrin, 0.2 ng/ml human epidermal growth factor. When a sufficient number of cells had been grown, they were transferred to 96-well plates and cultured for a minimum of 24 hours to allow the cells to adhere to the well plates. The cells were then used when they were fully confluent.\n(§9) The test materials and the sorbitol positive controls were prepared in fully supplemented EpiLife media. Supplemented EpiLife media alone served as the untreated control. These solutions were applied to the keratinocytes in the 96-well plates, after which the plates were incubated for 24 hours at 37±2° C. and 5±1% CO2.\n(§10) After the pretreatment incubation, the cell culture media was removed from both of the 96-well plates and replaced with supplemented EpiLife media which had progressively increasing concentrations of additional NaCl added (0, 75, 100, 125 and 150 mM) to generate a series of increasingly hypertonic solutions. After the addition of the media/NaCl, the 96-well plates were incubated for an additional 24 hours.\n(§11) After the second 24-hour incubation, the cell culture media was removed and the cells were washed once with phosphate buffered saline. After washing, 100 μl of keratinocyte cell culture media supplemented with MTT (0.5 mg/ml) was added to each well. The 96-well plates were returned to the incubator (37+2° C. and 5+1% CO2) for one hour. After the incubation the MTT solution was removed via aspiration and the cells were rinsed twice with phosphate buffered saline to remove any residual MTT on the outside of the cells and then 100 μl of isopropyl alcohol was added to the wells to extract the purple formazin crystals. The well plates were then read at 540 nm using isopropyl alcohol as a blank.\n(§12) The mean MTT absorbance value for the untreated control cells not exposed to any osmotic stress (0 mM NaCl) was calculated and used to represent 100% cell viability. The individual MTT values from the cells undergoing the various treatments were then divided by the mean value for the negative control cells and expressed as a percentage to determine the change in cell viability caused by each treatment."}, "human keratinocytes": {"system": "human keratinocytes", "test": "Osmotic stress assay: keratinocytes pretreated, exposed to hypertonic NaCl media, viability by MTT", "assay_type": "cell-based", "conditions": "for Cell Viability: MTT, % of untreated 0 mM NaCl control, mean +/- SD", "procedure": "as §5, §6, §7, §8, §9, §10, §11, §12"}, "[3]": {"test": "ORAC assay, loss of FITC fluorescence with AAPH", "assay_type": "biochemical", "procedure": "as §1, §2\nFor the ORAC assay, the test materials were prepared in Assay Buffer at 10× their final desired concentrations. Trolox was used as the positive control for this assay. To start the assay, 20 μl of the test material or positive control were added to the wells of a 96-well plate. All of the samples were prepared in triplicate. Next, 160 μl of a 360 nM FITC solution was added to each well and the plate was incubated for 30 minutes in the dark. After this incubation, 20 μl of a 153 mM AAPH (peroxyl radical generator) was added to each well. The plate was mixed and then read using a Fluoroskan Ascent Fluorometer at 2.5-minute intervals for 60 minutes with an excitation wavelength of 480 nm and an emission wavelength of 518 nm.\nas §3, §4"}, "[4]": {"conditions": "concentration at which 50% of the FITC signal loss is prevented"}}, "note": "Marks after values point to notes of the source that are not given here."}
{"compound": "O=C(O)/C=C/c1ccc(O)c(O)c1", "note": "[Caffeic Acid, Caffeic acid, reference compound]", "values": [{"measurement": "Percent Inhibition", "setting": "[1]; concentration 0.625 ug/ml", "value": 8.85, "unit": "%"}, {"measurement": "Percent Inhibition", "setting": "[1]; concentration 1.25 ug/ml", "value": 14.56, "unit": "%"}, {"measurement": "Percent Inhibition", "setting": "[1]; concentration 2.5 ug/ml", "value": 56.30, "unit": "%"}, {"measurement": "Percent Inhibition", "setting": "[1]; concentration 5 ug/ml", "value": 68.86, "unit": "%"}, {"measurement": "Percent Inhibition", "setting": "[1]; concentration 10 ug/ml", "value": 60.03, "unit": "%"}, {"measurement": "Percent Inhibition", "setting": "[1]; concentration 20 ug/ml", "value": 62.58, "unit": "%"}, {"measurement": "IC50", "setting": "[1]; [4]", "value": "IC50: 3.25 ug/ml"}]}
{"compound": "OC[C@@H](O)[C@@H](O)[C@H](O)[C@@H](O)CO", "note": "[Sorbitol, sorbitol, reference compound]", "values": [{"measurement": "viability at 24 h, 12.5 mM", "setting": "[2]; 24 h pretreatment with 12.5 mM Sorbitol", "value": 101, "unit": "%"}, {"measurement": "viability at 24 h, 25 mM", "setting": "[2]; 24 h pretreatment with 25 mM Sorbitol", "value": 122, "unit": "%"}, {"measurement": "Cell Viability", "setting": "human keratinocytes; 24 h pretreatment with 12.5 mM Sorbitol, then 24 h with 75 mM added NaCl", "value": "103.2 +/− 1.8%"}, {"measurement": "Cell Viability", "setting": "human keratinocytes; 24 h pretreatment with 12.5 mM Sorbitol, then 24 h with 100 mM added NaCl", "value": "98.3 +/− 6.0* %"}, {"measurement": "Cell Viability", "setting": "human keratinocytes; 24 h pretreatment with 12.5 mM Sorbitol, then 24 h with 125 mM added NaCl", "value": "73.2 +/− 13.3* %"}, {"measurement": "Cell Viability", "setting": "human keratinocytes; 24 h pretreatment with 12.5 mM Sorbitol, then 24 h with 150 mM added NaCl", "value": "24.1 +/− 9.6%"}, {"measurement": "Cell Viability", "setting": "human keratinocytes; 24 h pretreatment with 25 mM Sorbitol, then 24 h with 75 mM added NaCl", "value": "100.0 +/− 7.7%"}, {"measurement": "Cell Viability", "setting": "human keratinocytes; 24 h pretreatment with 25 mM Sorbitol, then 24 h with 100 mM added NaCl", "value": "93.9 +/− 2.8* %"}, {"measurement": "Cell Viability", "setting": "human keratinocytes; 24 h pretreatment with 25 mM Sorbitol, then 24 h with 125 mM added NaCl", "value": "69.5 +/− 9.7* %"}, {"measurement": "Cell Viability", "setting": "human keratinocytes; 24 h pretreatment with 25 mM Sorbitol, then 24 h with 150 mM added NaCl", "value": "29.5 +/− 5.6%"}, {"measurement": "cell viability versus untreated cell samples", "setting": "human keratinocytes; at both 100 mM and 125 mM NaCl", "value": "significantly greater than the untreated cell samples"}, {"measurement": "osmoprotective effect", "setting": "human keratinocytes; highest concentration of added NaCl (150 mM)", "value": "neither HSP nor sorbitol (positive control) showed a significant osmoprotective effect"}, {"measurement": "effect on the reduction in cell viability caused by the increase in hypertonicity", "setting": "human keratinocytes; increasing added NaCl, overall statement", "value": "slow the reduction in cell viability"}]}
{"compound": "Cc1c(C)c2c(c(C)c1O)CCC(C)(C(=O)O)O2", "note": "(stereo not shown) [Trolox, reference compound]", "values": [{"measurement": "Percent Inhibition", "setting": "[3]; concentration 0.078125 ug/ml", "value": 30.79, "unit": "%"}, {"measurement": "Percent Inhibition", "setting": "[3]; concentration 0.15625 ug/ml", "value": 47.09, "unit": "%"}, {"measurement": "Percent Inhibition", "setting": "[3]; concentration 0.3125 ug/ml", "value": 68.77, "unit": "%"}, {"measurement": "Percent Inhibition", "setting": "[3]; concentration 0.625 ug/ml", "value": 83.84, "unit": "%"}, {"measurement": "Percent Inhibition", "setting": "[3]; concentration 1.25 ug/ml", "value": 84.06, "unit": "%"}, {"measurement": "Percent Inhibition", "setting": "[3]; concentration 2.5 ug/ml", "value": 87.4, "unit": "%"}, {"measurement": "Percent Inhibition", "setting": "[3]; concentration 5 ug/ml", "value": 90.3, "unit": "%"}, {"measurement": "IC50", "setting": "[3]; [4]", "value": "IC50: 0.42 ug/ml"}]}
